Reference: PubChem BioAssay (NCI)
“And” between values parts separate entries of the source, which are not always exact repeats. Identical values can stand only once.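 Where inhibition never reached the appropriate level, the endpoint shown equals the highest concentration tested. Otherwise, values were interpolated linearly from a five-concentration, 48-hour dose response in 96-well plates. GI50 = concentration required for 50% inhibition of growth. TGI: total growth inhibition.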

Key:
Assay in all cases: NCI anticancer screen, dose series, 48 h
[1] = system: 786-0 renal
[2] = system: A498 renal
[3] = system: A549 NSCLC
[4] = system: ACHN renal
[5] = system: BT-549 breast
[6] = system: CAKI-1 renal
[7] = system: CCRF-CEM leukemia
[8] = system: COLO 205 colon
[9] = system: DU-145 prostate
[10] = system: EKVX NSCLC
[11] = system: HCC-2998 colon
[12] = system: HCT-116 colon
[13] = system: HCT-15 colon
[14] = system: HL-60(TB) leukemia
[15] = system: HOP-62 NSCLC
[16] = system: HOP-92 NSCLC
[17] = system: HS 578T breast
[18] = system: HT29 colon
[19] = system: IGROV1 ovarian
[20] = system: K-562 leukemia
[21] = system: KM12 colon
[22] = system: LOX IMVI melanoma
[23] = system: M14 melanoma
[24] = system: MALME-3M melanoma
[25] = system: MCF7 breast
[26] = system: MDA-MB-231 breast
[27] = system: MDA-MB-435
[28] = system: MOLT-4 leukemia
[29] = system: NCI-H226 lung
[30] = system: NCI-H23 lung
[31] = system: NCI-H460 lung
[32] = system: NCI-H522 lung
[33] = system: NCI/ADR-RES ovarian
[34] = system: OVCAR-3 ovarian
[35] = system: OVCAR-4 ovarian
[36] = system: OVCAR-5 ovarian
[37] = system: OVCAR-8 ovarian
[38] = system: PC-3 prostate
[39] = system: RPMI-8226 leukemia
[40] = system: RXF 393 renal
[41] = system: SF-268 CNS
[42] = system: SF-295 CNS
[43] = system: SF-539 CNS
[44] = system: SK-MEL-2 melanoma
[45] = system: SK-MEL-28 melanoma
[46] = system: SK-MEL-5 melanoma
[47] = system: SK-OV-3 ovarian
[48] = system: SN12C renal
[49] = system: SNB-19 CNS
[50] = system: SNB-75 CNS
[51] = system: SR leukemia
[52] = system: SW-620 colon
[53] = system: T-47D breast
[54] = system: TK-10 renal
[55] = system: U251 CNS
[56] = system: UACC-257 melanoma
[57] = system: UACC-62 melanoma
[58] = system: UO-31 renal

## Cc1nc(NC(=O)N2CCC[C@H]2C(N)=O)sc1-c1ccnc(C(C)(C)C(F)(F)F)c1
[1]
  GI50: 11.1 µM and > 10 µM
  TGI: 64.1 µM and > 10 µM
[2]
  GI50: 1.34 µM and 2.07 µM
  TGI: 5.62 µM and 9.99 µM
[3]
  GI50: 2.94 µM and 4.74 µM
  TGI: 30.9 µM and > 10 µM
[4]
  GI50: 5.6 µM and > 10 µM
  TGI: > 100 µM
[5]
  GI50: 4.91 µM and 6.33 µM
  TGI: 44.6 µM and > 10 µM
[6]
  GI50: 2.39 µM and 3.35 µM
  TGI: 17.8 µM and > 10 µM
[7]
  GI50: 5.13 µM and 5.71 µM
  TGI: 75.4 µM and > 10 µM
[8]
  GI50: 2.75 µM and 1.38 µM
  TGI: 19.6 µM and > 10 µM
[9]
  GI50: 4.84 µM and 9.16 µM
  TGI: > 73.1 µM
[10]
  GI50: 4.53 µM
  TGI: > 10 µM
[11]
  GI50: 12.8 µM and 6.71 µM
  TGI: 49.9 µM and > 10 µM
[12]
  GI50: 2.87 µM and 3.48 µM
  TGI: > 87.3 µM
[13]
  GI50: 1.36 µM and 2.81 µM
  TGI: 47 µM and > 10 µM
[14]
  GI50: 1.04 µM and 0.289 µM
  TGI: 37.3 µM and > 10 µM
[15]
  GI50: 8.06 µM and > 10 µM
  TGI: > 75.1 µM
[16]
  GI50: 0.0598 µM and 0.13 µM
  TGI: 1.52 µM and 2.89 µM
[17]
  TGI: 21.2 µM and 3.1 µM
[18]
  GI50: 0.488 µM and 0.477 µM
  TGI: 20.8 µM and > 10 µM
[19]
  GI50: 0.0558 µM and 0.121 µM
  TGI: 0.483 µM and 0.816 µM
[20]
  GI50: 28.1 µM and > 10 µM
  TGI: > 100 µM
[21]
  GI50: 15.4 µM and > 10 µM
  TGI: > 91.5 µM
[22]
  GI50: 3.36 µM and 2.58 µM
  TGI: 22 µM and > 10 µM
[23]
  GI50: 8.75 µM and > 10 µM
  TGI: > 82 µM
[24]
  GI50: 1.8 µM and > 10 µM
  TGI: 22.4 µM and > 10 µM
[25]
  GI50: 0.12 µM and 0.296 µM
  TGI: > 38.4 µM
[26]
  GI50: 11.3 µM and > 10 µM
  TGI: 32 µM and > 10 µM
[27]
  GI50: 7.33 µM and > 10 µM
  TGI: 51.6 µM and > 10 µM
[28]
  GI50: 2.49 µM and 2.94 µM
  TGI: 28.2 µM and > 10 µM
[29]
  GI50: 5.26 µM and 4.54 µM
  TGI: 45.7 µM and > 10 µM
[30]
  GI50: 10.2 µM and > 10 µM
  TGI: 61.9 µM and > 10 µM
[31]
  GI50: 1.36 µM and 2.02 µM
  TGI: > 100 µM
[32]
  GI50: 6.41 µM and 8.17 µM
  TGI: 27.1 µM and > 10 µM
[33]
  GI50: 14.6 µM and > 10 µM
  TGI: 85.8 µM and > 10 µM
[34]
  GI50: 4.16 µM and 8 µM
  TGI: 30.7 µM and > 10 µM
[35]
  GI50: 13.3 µM and > 10 µM
  TGI: > 75.3 µM
[36]
  GI50: 0.776 µM and 1.02 µM
  TGI: 57.4 µM and > 10 µM
[37]
  GI50: 8.28 µM and > 10 µM
  TGI: 76.2 µM and > 10 µM
[38]
  GI50: 2.19 µM and 3.61 µM
  TGI: 25.4 µM and > 10 µM
[39]
  GI50: 16.1 µM and > 10 µM
  TGI: 58.5 µM and > 10 µM
[40]
  GI50: 2.78 µM and 3.45 µM
  TGI: 17.3 µM and > 10 µM
[41]
  GI50: 9.71 µM and 9.76 µM
  TGI: > 86.5 µM
[42]
  GI50: 2.79 µM and 4.1 µM
  TGI: 16 µM and > 10 µM
[43]
  GI50: 3.93 µM and 4.6 µM
  TGI: 24.3 µM and > 10 µM
[44]
  GI50: 6.94 µM and > 10 µM
  TGI: 24.1 µM and > 10 µM
[45]
  GI50: 4.72 µM and 6.71 µM
  TGI: > 61.6 µM
[46]
  GI50: 11.8 µM and > 10 µM
  TGI: 24.6 µM and > 10 µM
[47]
  GI50: 0.134 µM and 0.262 µM
  TGI: 5.98 µM and 6.37 µM
[48]
  GI50: 6.43 µM and > 10 µM
  TGI: > 100 µM
[49]
  GI50: 8.6 µM and > 10 µM
  TGI: 66.2 µM and > 10 µM
[50]
  GI50: 0.594 µM
  TGI: 15.5 µM
[51]
  GI50: 8.94 µM and > 10 µM
  TGI: 44.1 µM and > 10 µM
[52]
  GI50: 4.82 µM and 7.37 µM
  TGI: > 67.1 µM
[53]
  GI50: 0.0412 µM and 0.0507 µM
  TGI: 1.79 µM and 0.599 µM
[54]
  GI50: 1.2 µM and 0.789 µM
  TGI: 15.8 µM and > 10 µM
[55]
  GI50: 3.22 µM and 5.54 µM
  TGI: 18.7 µM and > 10 µM
[56]
  GI50: 9.58 µM and > 10 µM
  TGI: 45 µM and > 10 µM
[57]
  GI50: 3.18 µM and 3.05 µM
  TGI: 18.7 µM and > 10 µM
[58]
  GI50: 2.48 µM and 2.07 µM
  TGI: 36.7 µM and > 10 µM
